Data taken from publication PMC9839384 (Slas Discovery, 2023).

Experiments:
3CLpro = 3CLpro (Severe acute respiratory syndrome coronavirus 2, UniProt P0DTD1); assay: 3CLpro biochemical inhibition assay; design: species or system SARS-CoV-2
[1] = tested on: SARS-CoV-2 3CLpro-HA, RLuc, FLuc in HEK293T cells; assay type: cell-based; settings: actin as control
SARS-CoV-2 3CLpro = SARS-CoV-2 3CLpro (Severe acute respiratory syndrome coronavirus 2, UniProt P0DTD1); assay type: cell-based
293T cells = settings: initial screening

Structure (SMILES) | potency in the enzymatic assay, in words (3CLpro) | Emax (3CLpro; Supplementary Fig. 2, panel D) | protein expression by western blot [1] | inhibition against viral proteases, in words (SARS-CoV-2 3CLpro) | cytotoxicity, in words (293T cells)
O=C(/C=C/c1ccc(Cl)c(Cl)c1)Nc1ccccc1C(=O)O [SR-32229] | low-µM affinity | ~100 % of tranilast |  |  | 
CC(C)C[C@H](NC(=O)[C@H](CCc1ccccc1)NC(=O)CN1CCOCC1)C(=O)N[C@@H](Cc1ccccc1)C(=O)N[C@@H](CC(C)C)C(=O)[C@@]1(C)CO1 [Carfilzomib] |  |  | decrease in all exogenously expressed constructs | inhibited all the proteases tested | 
COc1ccc(/C=C/C(=O)Nc2ccccc2C(=O)O)cc1OC [Tranilast, (E)-2-(3-(3,4-dimethoxyphenyl)acrylamido)benzoic acid] |  |  |  | SARS 3CLpro specific inhibition | nontoxic
CCN1CCN(Cc2ccc(NC(=O)Nc3ccc(Oc4cc(NC)ncn4)cc3)cc2C(F)(F)F)CC1 [AST-487] |  |  |  | some selective SARS 3CLpro inhibition but only at the highest concentration tested | 
